Laboratory results as given in US10925858B2, “S-nitrosoglutathione (GSNO) and GSNO reductase inhibitors for use in therapy” (MUSC FOUNDATION FOR RESEARCH DEVELOPMENT, priority 2017, dated 2021).

Key:
3-nitrotyrosine [1] = assay: Western analysis of 3-nitrotyrosine in rat brains with TBI; format: in vivo, Sprague Dawley rats; details: 24 hr after TBI, traumatic penumbra; GSNO 0.05 mg/kg i.v. or FeTPPS 3 mg/kg i.v.
Method: Western immunoblot analysis was performed by standard method using 50 μg of cell lysates. Following the SDS-PAGE electrophoresis, proteins were transferred from the gel onto the Polyvinylidene fluoride membrane (GE Healthcare Life Sciences, Marlborough, Mass.). Membranes were blocked with non-fat dry milk (Santa Cruz Biotechnology) or I-Block™ (ThermoFisher Scientific, Waltham, Mass.) for detection of phospho-proteins and incubated with primary antibodies, such as MBP (Santa Cruz Biotech Cat #: sc13914; RRID: AB_648798), phospho-(Ser^19) MLC (Abeam, Cat #: ab2480; RRID: AB_303094), MLC (Abeam, Cat #: ab79935; RRID:AB_1952220), P-actin (Santa Cruz Biotechnology, Cat #: sc-47778; RRID:AB_2714189), phospho-eNOS (Ser^1177) (Cell Signaling, Cat #: 9571; RRID: AB_329837, Danvers, Mass.), eNOS (Cell Signaling, Cat #: 32027), RhoA (Santa Cruz Biotechnology; Cat #: sc418; RRID: AB_628218) or 3-nitrotyrosine (Abeam, Cat #: ab61392; RRID: AB_942087). […]
All animals used in this study received humane care in compliance with the Medical University of South Carolina's (MUSC) guidance and the National Research Council's criteria for humane care. […] The group size was determined by power analysis based on our previous data (Khan et al., 2016b; Khan et al., 2009). […]

3-nitrotyrosine [2] = assay: Nitrotyrosine levels in spinal cords of EAE mice, Western; format: in vivo, C57BL/6J mice; details: day 24 post-immunization; GSNO 1 mg/kg/day or FeTPPS 30 mg/kg/day i.p.
Method: (§1) Western immunoblot analysis was performed by standard method using 50 μg of cell lysates. Following the SDS-PAGE electrophoresis, proteins were transferred from the gel onto the Polyvinylidene fluoride membrane (GE Healthcare Life Sciences, Marlborough, Mass.). […]
(§2) EAE was induced as described previously (Nath et al., 2009). […] The group size was determined by power analysis based on our previous data (Nadi et al., 2009). […] Clinical signs of EAE were scored in animal facility in a blinded fashion to experimenter between 2 and 4 pm daily by examiners blinded to experimental treatments using the following scale: 0=no clinical signs of disease; 1=limp tail or waddling gait with tail tonicity; 2=waddling gait with limp tail (ataxia); 2.5=ataxia with partial limb paralysis; 3=full paralysis of one limb; 3.5=full paralysis of one limb with partial paralysis of second limb; 4=full paralysis of two limbs; 4.5=moribund stage; 5=death. […]

BBB leakage = assay: Evan's blue extravasation assay (BBB leakage) in EAE mice; format: in vivo, C57BL/6J mice; details: GSNO 1 mg/kg/day or FeTPPS 30 mg/kg/day i.p.
Method: (§3) EAE was induced as described previously (Nath et al., 2009). Animal procedures were approved by the institutional animal care and use committee of MUSC (AR #1644). Briefly, female C57BL/6J mice of 8-12 weeks of age weighing 18-22 g (The Jackson Laboratory, Bar Harbor, Me., USA) were randomly divided into four groups: 1) EAE animals treated with vehicle (EAE; n=8), 2) EAE with GSNO (1 mg/kg body weight per day; i.p.) treatment (EAE+GSNO; n=12), 3) EAE with FeTPPS (30 mg/kg body weight per day; i.p.) treatment (EAE+FeTPPS; n=8), 4) control with vehicle (Ctrl; n=8). The group size was determined by power analysis based on our previous data (Nadi et al., 2009). Then, the mice were immunized subcutaneously in the flank regions with MOG35-55 peptide (MOG; 200 ug; Peptide International) emulsified (1:1) in 100 ul complete Freund's adjuvant (CFA) CHI day 0 and day 7. […] Clinical signs of EAE were scored in animal facility in a blinded fashion to experimenter between 2 and 4 pm daily by examiners blinded to experimental treatments using the following scale: 0=no clinical signs of disease; 1=limp tail or waddling gait with tail tonicity; 2=waddling gait with limp tail (ataxia); 2.5=ataxia with partial limb paralysis; 3=full paralysis of one limb; 3.5=full paralysis of one limb with partial paralysis of second limb; 4=full paralysis of two limbs; 4.5=moribund stage; 5=death. […]

mononuclear cells = assay: H&E staining, peripheral mononuclear cell infiltration in EAE mice; format: in vivo, C57BL/6J mice; details: GSNO 1 mg/kg/day or FeTPPS 30 mg/kg/day i.p.
Method: as §3

myelin = assay: Spinal cord demyelination (MBP staining and Western) in EAE mice; format: in vivo, C57BL/6J mice; details: GSNO 1 mg/kg/day or FeTPPS 30 mg/kg/day i.p.
Method: as §1, §2
Animals were anesthetized and fixed with cardiac perfusion of 4% paraformaldehyde (Nath et al., 2004). […] To assess the status of myelin, the sections were stained with antibody specific to MBP and detected with secondary antibody conjugated with immunofluorescent analysis. […]

Row | SMILES | brain levels of 3-nitrotyrosine (3-nitrotyrosine [1]) | EAE-induced nitrotyrosine levels in spinal cords (3-nitrotyrosine [2]) | extravasation of Evan's blue dye into the CNS (BBB leakage) | extravasation of peripheral mononuclear cells into the CNS (mononuclear cells) | protection of myelin in the spinal cord (myelin)
1 | N[C@@H](CCC(=O)N[C@@H](CSN=O)C(=O)NCC(=O)O)C(=O)O [GSNO, S-nitrosoglutathione] | reduced | significantly decreased | significantly decreased | significantly decreased | protected myelin
2 | Cl.O=S(=O)([O-])c1ccc(-c2c3nc(c(-c4ccc(S(=O)(=O)O)cc4)c4ccc([nH]4)c(-c4ccc(S(=O)(=O)O)cc4)c4nc(c(-c5ccc(S(=O)(=O)O)cc5)c5ccc2[nH]5)C=C4)C=C3)cc1.[Fe] [FeTPPS, 5,10,15,20-Tetrakis(4-sulfonatophenyl)porphyrinato Iron (III), Cl, reference compound] | reduced | significantly decreased | significantly decreased | significantly decreased | protected myelin
